In data set [1] the test system is HepG2. Put plainly: Cytotoxicity against human HepG2 cells assessed as cell vitality at 0.1 uM after 72 hrs by trypan blue staining based assay (reference value: 1.1 +/- 0.5%). The following applies: hepg2, 72 h.
Data set [2] can be described thus: Cytotoxicity against human HepG2 cells assessed as cell viability at 10.1 uM after 72 hrs by WST1 assay (reference value: 100%). Format: cell-based. The following applies: read-out: Activity.
Data set [3] can be described thus: Cytotoxicity against human HepG2 cells assessed as cell viability at 2.5 uM after 72 hrs by WST1 assay (reference value: 100%). Format: cell-based. The following applies: read-out: Activity. (In general: Tetrazolium dyes change colour on reduction, which living cells bring about.)
The nature of data set [4]: Cytotoxicity against human HepG2 cells assessed as cell vitality at 5.1 uM after 72 hrs by trypan blue staining based assay (reference value: 1.1 +/- 0.5%). The conditions noted are these: read-out: Activity.
A short description of data set [5]: Cytotoxicity against human HepG2 cells assessed as cell viability at 0.1 uM after 72 hrs by WST1 assay (reference value: 100%). The conditions noted are these: read-out: Activity. It counts as cell-based.
The test system of data set [6] is HepG2. The data set can be described thus: Cytotoxicity against human HepG2 cells assessed as cell vitality at 1.3 uM after 72 hrs by trypan blue staining based assay (reference value: 1.1 +/- 0.5%). The following applies: hepg2, 72 h.
Data set [7] is described as follows: Cytotoxicity against human HepG2 cells assessed as cell vitality at 10.1 uM after 72 hrs by trypan blue staining based assay (reference value: 1.1 +/- 0.5%). The following applies: read-out: Activity.
The test system of data set [8] is HepG2. The data set can be described thus: Cytotoxicity against human HepG2 cells assessed as cell vitality at 2.5 uM after 72 hrs by trypan blue staining based assay (reference value: 1.1 +/- 0.5%). The conditions noted are these: hepg2, 72 h.
Data set [9] relates to HepG2. The data set can be described thus: Cytotoxicity against human HepG2 cells assessed as cell viability after 72 hrs by WST1 assay. The conditions noted are these: for IC50: Homo sapiens, HepG2, 72 h; for Activity: human, hepg2, 72 h. It counts as cell-based.
Data set [10] in a line: Cytotoxicity against human HepG2 cells assessed as cell viability at 0.4 uM after 72 hrs by WST1 assay (reference value: 100%). The following applies: read-out: Activity. It counts as cell-based.
A short description of data set [11]: Cytotoxicity against human HepG2 cells assessed as cell viability at 1.3 uM after 72 hrs by WST1 assay (reference value: 100%). Format: cell-based. The conditions noted are these: read-out: Activity.
In data set [12] the test system is HepG2. Put plainly: Cytotoxicity against human HepG2 cells assessed as cell vitality at 0.4 uM after 72 hrs by trypan blue staining based assay (reference value: 1.1 +/- 0.5%). The following applies: hepg2, 72 h.
The subject of data set [13] is HepG2. Put plainly: Cytotoxicity against human HepG2 cells assessed as cell vitality after 72 hrs by trypan blue staining based assay. The following applies: hepg2, 72 h.
The nature of data set [14]: Cytotoxicity against human HepG2 cells assessed as cell viability at 5.1 uM after 72 hrs by WST1 assay (reference value: 100%). Format: cell-based. The conditions noted are these: read-out: Activity.

Consider two compounds from ChEMBL document CHEMBL4190219, “Detection of a Toxic Methylated Derivative of Phomopsin A Produced by the Legume-Infesting Fungus Diaporthe toxica” (J Nat Prod, 2017).

Broadly, the IC50 is the concentration needed to halve the response being measured. As to `C=C(C)[C@@H]1NC(=O)[C@H](NC)[C@H](O)c2cc(Cl)c(O)c(c2)O[C@](C)(CC)[C@@H](C(=O)N2CC=C[C@H]2C(=O)N/C(C(=O)N/C(=C/C(=O)O)C(=O)O)=C(\C)CC)NC1=O`, the Activity in the data set on HepG2 [1] is 0.5%; in the data set with HepG2 [6] it was 1.6%; in the data set with HepG2 [8], 4.3%; in the data set with HepG2 [9] it was “Dose-dependent effect”; in the data set on HepG2 [12], 1.1%; with HepG2 [13], “Dose-dependent effect”. Also, the viability at 72 h, 10.1 µM in data set [2] came out at 48%; in [7], 17%. Besides, the viability at 72 h, 2.5 µM in data set [3] was found to be 83%. The figures for the viability at 72 h, 5.1 µM in data set [4] and in data set [14] were 9% and 57%, respectively. Further, the viability at 72 h, 0.1 µM in data set [5] was determined as 106%. In addition, in the data set on HepG2 [9], the IC50 came out at 8.1 µM. Further, the viability at 72 h, 0.4 µM in [10] stood at 105%. In addition, the viability at 72 h, 1.3 µM in data set [11] came out at 99%.

As for `C=C(C)[C@@H]1NC(=O)[C@H](N(C)C)[C@H](O)c2cc(Cl)c(O)c(c2)O[C@](C)(CC)[C@@H](C(=O)N2CC=C[C@H]2C(=O)N/C(C(=O)N/C(=C/C(=O)O)C(=O)O)=C(\C)CC)NC1=O`, the Activity is 0.9% with HepG2 [1]; 4.7% with HepG2 [6]; 7.7% with HepG2 [8]; “Dose-dependent effect” in the data set with HepG2 [9]; 0.9% in the data set with HepG2 [12]; “Dose-dependent effect” with HepG2 [13]. Further, the viability at 72 h, 10.1 µM in [2] amounted to 37%; in data set [7] it was 29.8%. For the same compound, the viability at 72 h, 2.5 µM in [3] was 61%. The viability at 72 h, 5.1 µM in [4] worked out at 18.4%; in [14] it was 46%. Besides, the viability at 72 h, 0.1 µM in [5] is 105%. The IC50 in the data set on HepG2 [9] stood at 6.1 µM. Further, in [10], the viability at 72 h, 0.4 µM is 101%. For the same compound, in data set [11], the viability at 72 h, 1.3 µM stood at 85%.
